This note sets out measurements from paper PMC8400920, “Metabolism of Diterpenoids Derived from the Bark of Cinnamomum cassia in Human Liver Microsomes” (Pharmaceutics, 2021).

For one data set, the system named is CYPs. Kind of data set: Metabolism of AHC in HLMs with SKF-525A, a nonselective CYP inhibitor. In kind it is in vitro ADME, human. Particulars: 10 µM AHC, 1 mg/mL HLMs, NGS, 60 min. On the procedure:
To investigate CYP-mediated metabolism, 10 µM AHC was mixed with 1 mg/mL pooled HLMs and 0.1 M potassium phosphate buffer (pH 7.4). Then, SKF-525A, a general inhibitor of CYPs, was added at concentrations of 0.5, 1, and 5 mM. The reactions were initiated with the addition of NGS at […] for 60 min. After 60 min, the reactions were terminated by adding 400 µL of 100% acetonitrile. The mixtures were then centrifuged at 15,700× g for 10 min. Subsequently, 550 µL of supernatant was dried in a vacuum concentrator. The residue was dissolved in 100 µL of 20% MeOH (0.1% formic acid), and 5 µL of this sample was injected into a C18 column for LC–MS/MS analysis.
To confirm the metabolism of AHC by CYP enzymes, AHC was incubated in HLMs with SKF-525A, i.e., a nonspecific CYP inhibitor (Figure S7). […] Consequently, as the metabolism of AHC was inhibited by SKF-525A treatment, the production of all metabolites was reduced in an SKF-525A concentration-dependent manner.

The subject of data set [1] is human liver microsomes (HLMs). Kind of data set: Metabolic stability of seven diterpenoids in human liver microsomes. In kind it is in vitro ADME. To be noted: 10 µM, 0.5 mg/mL HLMs, NGS, 37 °C. As for the experimental part: For metabolism profiling, 10 µM of each of the seven compounds isolated from C. cassia bark was added to 0.5 mg/mL of pooled HLMs and 0.1 M potassium phosphate buffer (pH 7.4). The HLMs were then preincubated at 37 °C for 1 min. After adding NGS, the reaction mixture was incubated at 37 °C for 60 min. After the 60 min incubation period, 50 µL of the reaction mixture was transferred to a new tube, and 50 µL of 100% ACN containing 0.1% formic acid and tolbutamide (internal standard) was added to terminate the reaction. The mixture was then vortexed, followed by centrifugation at 15,700× g (13,000 rpm) for 10 min (Eppendorf AG, Hamburg, Germany). Finally, 90 µL of the supernatant was transferred to a vial and injected into a C18 column for LC–MS/MS analysis.
The metabolism screening of the seven compounds was performed using an HPLC system (Thermo Fisher Scientific, Bremen, Germany) equipped with an HPG-3200SD standard binary pump, a WPS-3000 TRS analytical autosampler, and a TCC-3000 SD column compartment. The HPLC system was coupled with an HR-MS (Q-Exactive Focus Quadrupole-Orbitrap MS; Thermo Fisher Scientific, Waltham, MA, USA) at the Mass Spectrometry Convergence Research Center. The full MS resolution and scan ranges were 70,000 and 60–900 m/z, respectively. The MS/MS resolution was 35,000. The mass spectra were obtained in negative ion electrospray mode. A heated electrospray ionization (HESI-II) probe was used as an ion generator, with nitrogen as the sheath gas at 35 aux units and auxiliary gas at 12 aux units. The mass spectrometer was operated in negative ionization mode. The other parameters were as follows: spray voltage, 3.5 kV; capillary temperature, 320 °C; S-lens radio frequency level, 50; and aux gas heater temperature, 400 °C.
The mobile phase consisted of 100% water with 0.1% formic acid (mobile phase A) and 100% ACN with 0.1% formic acid (mobile phase B). For metabolic stability, the gradient conditions were set as follows: 5% of B at 0.5–2.0 min, 5–50% of B at 2.0–4.5 min, 50% of B at 4.5–7.0 min, and 50–5% of B at 7.0–10.0 min at 40 °C with a flow rate of 0.2 mL/min. For metabolite identification, the gradient conditions were as follows: 10% of B at 0–5 min, 10–55% of B at 5–15 min, 55% of B at 15–23 min, and 55–10% of B at 23–30 min with a flow rate of 0.25 mL/min. Chromatographic separation was performed using a Kinetex C18 column (150 × 2.1 mm, 2.6 μm, XB-C18 100 Å, S/No: H19-070128; Phenomenex, Torrance, CA, USA). Data were analyzed using Xcalibur version 4.0 software (Thermo Fisher Scientific, Waltham, MA, USA).
To confirm their metabolic stability, seven diterpenoids (AHC, anhydrocinnzeylanol, cinncassiol A, cinncassiol B, cinnzeylanol, cinnzeylanone, and cinnzeylanine) derived from the bark of C. cassia were incubated with HLMs in the presence of the NGS for 60 min (Figure 1B). The metabolic stability of each compound was determined according to the ratio of the peak area at 60 min to that at 0 min. […] Therefore, we identified the metabolites of AHC produced in HLMs.
A general note: Microsomes from liver hold many membrane-bound enzymes, among them those of drug oxidation.

The structures appear in SMILES notation. Where a name gives a salt, the structure may show the parent alone.

Turning to `CCCC(C(=O)OCCN(CC)CC)(c1ccccc1)c1ccccc1` [SKF-525A, proadifen hydrochloride, reference compound], the “effect of SKF-525A on the metabolism of AHC in HLMs” value with CYPs is listed as “inhibited”. In the case of `CC1=C(C(C)C)C[C@@]2(O)[C@@]3(C)CC(=O)O[C@@]4([C@H](O)[C@@H](C)CC[C@]34O)[C@@]12O` [anhydrocinnzeylanol], the “decrease of stability in HLMs (peak area 60 min vs 0 min)” value in data set [1] is reported as “approximately 20%”. Moreover, in data set [1] (60 min), the “fraction metabolized in HLMs (metabolized by)” value is given as 20%. For `CC1CCC2(O)C3(C)CC4(O)OC2(C1=O)C1(O)C3(O)CC(O)(C(C)C)C41C` (stereo not shown) [cinnzeylanone], the “decrease of stability in HLMs (peak area 60 min vs 0 min)” value in data set [1] is “approximately 20%”.
